Test results reported in ChEMBL document CHEMBL3525962, “Novel bioactivation mechanism of reactive metabolite formation from phenyl methyl-isoxazoles” (Drug Metab Dispos, 2012).

Tested on: Liver microsome
Test: Drug metabolism in human liver microsomes assessed as oxidative metabolite formation at 10 uM by LC-MS analysis in presence of NADPH
Format: ADME

Drug metabolism: metabolite_detected
SMILES: Cc1onc(-c2ccccc2)c1NC(=O)NCc1ccc(Cl)cc1Cl
